The source of these data is US5597922A, “Glycine receptor antagonist pharmacophore” (priority 1994, dated 1997).

As a reminder, the pIC50 is the IC50 on a negative log10 scale, so that one unit is a factor of ten. A word on the pKi: it is the negative decadic logarithm of the Ki, by convention in mol/L. As usually defined, the pKd is the negative decadic logarithm of the Kd, by convention in mol/L.

Data set [1] deals with T1, glycine/NMDA receptor (Rattus norvegicus, UniProt P35439).
T1 construct: rat brain membrane homogenates which are enriched in NMDA receptors; tissue Pel-Freez, Rogers, Ark; (frozen rat brains); host or cells: rat brain membrane homogenates
In words: inhibition of 1 μM glycine-stimulated [3H]-MK801 binding in rat brain membrane homogenates (glycine/NMDA receptor antagonist activity). Particulars: for potency relative to DCK (% of DCK): relative to 5,7-dichlorokynurenic acid (DCK); for pKi: calculated from IC50 by Cheng and Prusoff equation; for activity as antagonist for the glycine/NMDA receptor (in words): in vitro binding assay. The method, then: This assay takes advantage of the fact that the binding of [^3 H]-MK801 to the PCP receptor inside the pore of the NMDA channel is dependent on the presence of both glutamate and glycine. In the absence of glycine but in the presence of glutamate, [^3 H]-MK801 cannot bind effectively to the PCP receptor, because the NMDA channel remains closed and access of [^3 H]-MK801 to the PCP receptor inside the closed channel pore is severely restricted.
The assay is conducted using rat brain membrane homogenates which are enriched in NMDA receptors. The membranes are prepared as follows. Frozen rat brains (obtained from Pel-Freez, Rogers, Ark.) are homogenized in 15 volumes (w/v) of ice cold 0.32M sucrose. The homogenate is spun at 1,000×g for ten minutes. The supernatant is collected and spun for 20 minutes at 44,000×g. The pellet is suspended in 15 volumes of water (relative to original brain weight). The homogenate is again spun at 44,000×g for twenty minutes. The pellet is resuspended in 5 volumes of water and the suspension is freeze-thawed 2 times. After the final thaw cycle, the suspension is brought to 15 volumes with water and spun at 44,000×g for twenty minutes. The pellet is resuspended in 5 volumes of ice-cold […] HEPES, and is titrated to pH 7.4 with KOH containing 0.04% Triton X-100. Membranes are incubated with the Triton/HEPES buffer at 37° C. for 15 minutes. The volume is then brought to 15 with ice-cold 10 mM HEPES, pH 7.4, and spun/washed three times with spins of 44,000×g between washes. The final pellet is suspended in three volumes of 50 mM HEPES, pH 7.4 and the protein concentration is determined with a standard dye-binding protein assay (Bio-Rad, Richmond, Calif.). The suspension is stored at -80° C. until used. Only HPLC grade water is used for all buffers and suspensions/washings. The extensive washings are necessary to remove as much endogenous glycine from the membrane preparation as possible.
Nonspecific binding is defined as the […] presence of PCP (final concentration: 100 μM). To determine the effect of 1 μM glycine on the binding of [^3 H]-MK801, bound radioactivity in the presence of 10 μM glutamate alone (final concentration) is subtracted from the bound radioactivity in the presence of both 10 μM glutamate and 1 μM glycine (final concentration). A 500 nM concentration (final) of 5,7-dichlorokynurenic (DCK) acid is added to all assay tubes. This concentration of the glycine antagonist DCK "buffers" most of the residual endogenous glycine that is not removed by the extensive washing steps that are carried out during the membrane preparation procedure.
The assays are incubated for 120 minutes at room temperature after which time the membrane-bound radioactivity is isolated from the free radioactivity by vacuum filtration through Whatman glass fiber filters that had been pretreated with 0.3% polyethyleneimine. Filtration is accomplished using a Brandel 48 well cell harvester. Filtered membranes are washed three times with 3 mL each of ice cold buffer. Filters are transferred to scintillation vials and 5 mL of scintillation cocktail is added. The vials are shaken overnight and the radioactivity is counted by liquid scintillation spectroscopy. The assays are done in triplicate and all experiments are conducted at least three times.

For data set [2] the following is noted: in words; cited from earlier work.
Data set [3] relates to glycine binding site of the NMDA receptor. Particulars: Fletcher and Lodge (1988); cited from earlier work.
Data set [4] deals with PCP receptor. The following applies: Wong, E. H. F., et al. (1986); cited from earlier work.
The mark [5] stands for this setting: 1 μM glycine-stimulated [3H]-MK801 binding, rat brain membranes, unit μm [sic], read-out: IC50.
Setting [6] is: 1 μM glycine-stimulated [3H]-MK801 binding, rat brain membranes, read-out: IC50.

pIC50, pKd, pKi: −log10 of the molar value. Where two headings read alike, the source gives them in different places.

With `O=C1CNC(=O)c2ccccc2N1` [Compound 73a, 2,3,5-trihydro-1H,4H-1,4-Benzodiazepine-2,5-dione], the pIC50 in data set [1] (setting [5]) was 3.52. The “potency relative to DCK (% of DCK)” value in data set [1] was determined as 1.0%.
`O=C1Nc2cc(Cl)c(Cl)cc2NC1[N+](=O)[O-]` (stereo not shown) [Compound 33]: in data set [1] (unit μm [sic]), the pKi was 6.66.
Consider `O=[N+]([O-])c1c(Br)c(Br)cc2nc(O)[nH]c12` [Example 50, 4-Nitro-5,6-dibromo-2-hydroxybenzimidazole], for which the “Potency relative to DCK (in words)” value in data set [1] (relative to DCK) was “inactive”.
With `COc1cc2ccccc2[nH]c1=O` [Compound 5, 3-Methoxy-2-quinolone], the “activity as antagonist for the glycine/NMDA receptor (in words)” value in data set [1] is “inactive”.
Regarding `O=c1[nH]c2cc(Cl)c([N+](=O)[O-])c(Cl)c2c(=O)o1` [Compound 14d, 5,7-Dichloro-6(8)-nitroisatoic anhydride], in data set [1], the “potency relative to DCK (% of DCK)” value was 2.7%.
Turning to `O=C(O)c1cc2ccccc2[nH]1` [indole-2-carboxylic acid], the blood/brain barrier penetration result in data set [2] is reported as “cannot penetrate the blood/brain barrier”.
`O=c1[nH]c2cc(Cl)c(Cl)cc2[nH]c1=NO` [Compound 37, 6,7-Dichloro-3-(hydroxyimino)-1,4-dihydroquinoxalin-2-one]: in data set [1], the pKi is 6.52.
Take `O=C1Nc2cc(Cl)cc(Cl)c2C1=O` [Compound 13d, 4,6-Dichloroisatin]: the “activity as antagonist for the glycine/NMDA receptor (in words)” value in data set [1] is listed as “not to be active”.
Regarding `O=C1Nc2ccccc2C(=O)C1=O` [Compound 12, Quinoline-2,3,4-trione], the pIC50 in data set [1] (setting [6]) is 4.30. Moreover, the “potency relative to DCK (% of DCK)” value in data set [1] was determined as 5%.
The corresponding values for `Oc1nc2ccccc2c(O)c1O` [Compound 11, 2,3,4-Trihydroxyquinoline] are 4.22 and 4%.
Regarding `O=C1Nc2cc(Cl)c([N+](=O)[O-])c(Cl)c2C1=O` [Compound 13e, 4,6-Dichloro-5(7)-nitroisatin], the pIC50 in data set [1] (setting [5]) was 4.02. For the same compound, the “potency relative to DCK (% of DCK)” value in data set [1] is 3%.
As to `NC1CCN(O)C1=O` (stereo not shown) [HA-966], in data set [3], the “affinity for the glycine binding site (in words)” value is “micromolar affinity” and the “type of activity at the glycine binding site (in words)” value is on record as “partial agonist”. The blood/brain barrier penetration result in data set [2] is listed as “sufficiently penetrates the blood/brain barrier”.
For `O=c1[nH]c2ccccc2[nH]c1=O` [QX, 1,4-dihydroquinoxaline-2,3-dione, reference compound], the “potency relative to DCK (% of DCK)” value in data set [1] stood at 2%.
Regarding `O=C1C=CC(=O)Nc2ccccc2N1` [Compound 43, 1H-6H-1,6-Benzodiazocine-2,5-dione], in data set [1], the “activity as antagonist for the glycine/NMDA receptor (in words)” value is “inactive”.
Consider `O=C(O)c1cc(=O)c2ccccc2o1` [Compound 19], for which, in data set [1], the “activity as antagonist for the glycine/NMDA receptor (in words)” value is “only partially active”.
Consider `O=C1Nc2ccccc2C1=O` [Compound 13, Isatin], for which the “activity as antagonist for the glycine/NMDA receptor (in words)” value in data set [1] was “not to be active”.
Turning to `O=c1[nH]c2ccccc2oc1=O` [Compound 2, 4,1-Benzoxazine;2,3-dione], the pIC50 in data set [1] (setting [5]) was 3.78. Moreover, the “potency relative to DCK (% of DCK)” value in data set [1] amounted to 1.5%.
Turning to `C[C@]12N[C@H](Cc3ccccc31)c1ccccc12` [MK-801], in data set [4], the pKd is approximately 8.52.
Regarding `O=c1[nH]c2ccccc2c(=O)o1` [Compound 14a, Isatoic anhydride], in data set [1], the pIC50 was 3.64 and the “potency relative to DCK (% of DCK)” value is reported as 1.1%.
On to `O=C(O)c1cc(O)c2ccc(Cl)cc2n1` [7-Cl-kynurenic acid], for which the blood/brain barrier penetration result in data set [2] was “cannot penetrate the blood/brain barrier”.
